Several values for one entry are separate records, joined by “and”; a condition that tells them apart may be missing. Equal entries are not always repeated.
[Br-].[Br-].[Br-].[Tb+3] [terbium tribromide]
Crystal
Details	vapor or sublimation pressure
904 K	4.79e-05 kPa
908 K	4.68e-05 kPa
912 K	3.8e-05 kPa
915 K	7.59e-05 kPa and 4.79e-05 kPa and 4.17e-05 kPa
917 K	8.13e-05 kPa
920 K	8.51e-05 kPa and 8.32e-05 kPa and 4.79e-05 kPa
921 K	7.59e-05 kPa
922 K	8.32e-05 kPa and 6.17e-05 kPa
924 K	0.000105 kPa
925 K	7.24e-05 kPa
928 K	9.55e-05 kPa
930 K	0.000132 kPa and 8.51e-05 kPa
931 K	0.00012 kPa
933 K	9.55e-05 kPa
934 K	8.51e-05 kPa and 0.00012 kPa
935 K	0.000151 kPa
937 K	0.000123 kPa and 0.000138 kPa
939 K	0.000151 kPa
940 K	0.000182 kPa [middle of 4 runs]
941 K	0.000115 kPa
943 K	0.000141 kPa
944 K	0.000209 kPa and 0.000186 kPa
945 K	0.000186 kPa
947 K	0.000214 kPa
948 K	0.00024 kPa and 0.000141 kPa
950 K	0.000182 kPa and 0.000166 kPa
954 K	0.000295 kPa
955 K	0.000191 kPa and 0.000269 kPa
956 K	0.000229 kPa
957 K	0.000331 kPa and 0.000229 kPa and 0.000275 kPa
958 K	0.000331 kPa and 0.000288 kPa
960 K	0.000363 kPa and 0.000316 kPa
962 K	0.000347 kPa [middle of 4 runs]
964 K	0.000288 kPa and 0.000389 kPa
968 K	0.000295 kPa
969 K	0.000363 kPa
970 K	0.000501 kPa
971 K	0.000355 kPa
973 K	0.000537 kPa and 0.000501 kPa
974 K	0.000575 kPa and 0.000355 kPa
975 K	0.000427 kPa
976 K	0.000501 kPa
977 K	0.000427 kPa and 0.000575 kPa
978 K	0.000617 kPa
980 K	0.000427 kPa
981 K	0.000661 kPa
983 K	0.000537 kPa and 0.000741 kPa
988 K	0.000871 kPa
989 K	0.000832 kPa
990 K	0.000912 kPa
991 K	0.001 kPa
992 K	0.00107 kPa
993 K	0.00107 kPa and 0.001 kPa
999 K	0.00115 kPa
1000 K	0.00126 kPa
1002 K	0.00132 kPa
1003 K	0.00138 kPa
1004 K	0.00148 kPa and 0.00158 kPa and 0.00129 kPa
1007 K	0.00155 kPa
1012 K	0.00174 kPa
1014 K	0.00166 kPa and 0.00209 kPa
1015 K	0.002 kPa and 0.00224 kPa
1019 K	0.00257 kPa
1020 K	0.00224 kPa
1024 K	0.0024 kPa
1025 K	0.00263 kPa and 0.00295 kPa
1030 K	0.00295 kPa
1032 K	0.00295 kPa
1035 K	0.00331 kPa and 0.00417 kPa
1039 K	0.00398 kPa
1042 K	0.00537 kPa
1045 K	0.00468 kPa
1047 K	0.00575 kPa
1049 K	0.00575 kPa
1051 K	0.00676 kPa
1054 K	0.00646 kPa
1058 K	0.00708 kPa
1059 K	0.00851 kPa and 0.00832 kPa
1064 K	0.00912 kPa
1067 K	0.01 kPa
1068 K	0.011 kPa and 0.0115 kPa
1071 K	0.0112 kPa
1076 K	0.0141 kPa and 0.0129 kPa
1078 K	0.0141 kPa
1085 K	0.0182 kPa
1088 K	0.0174 kPa and 0.0158 kPa
1099 K	0.0229 kPa
1108 K	0.0288 kPa

[Cl][Tb]([Cl])[Cl] [terbium trichloride]
Liquid
Details	vapor or sublimation pressure
921 K	6.76e-05 kPa
931 K	0.0001 kPa
937 K	0.000135 kPa
942 K	0.000209 kPa
943 K	0.00017 kPa
946 K	0.000166 kPa
950 K	0.000204 kPa
953 K	0.000219 kPa
957 K	0.000331 kPa and 0.000245 kPa
961 K	0.000288 kPa
965 K	0.000302 kPa
967 K	0.000331 kPa
971 K	0.000501 kPa and 0.000372 kPa
975 K	0.000407 kPa
976 K	0.000331 kPa
979 K	0.000447 kPa and 0.000331 kPa
980 K	0.000501 kPa
984 K	0.000537 kPa
988 K	0.000832 kPa
990 K	0.000661 kPa
992 K	0.000501 kPa
994 K	0.000708 kPa and 0.000741 kPa
995 K	0.000501 kPa
998 K	0.000794 kPa
999 K	0.00107 kPa and 0.000912 kPa
1006 K	0.00105 kPa and 0.000741 kPa
1009 K	0.000741 kPa
1010 K	0.00123 kPa and 0.00115 kPa
1011 K	0.00148 kPa
1017 K	0.00132 kPa [middle of 4 runs]
1020 K	0.00158 kPa
1021 K	0.00191 kPa
1024 K	0.00166 kPa
1026 K	0.00178 kPa
1027 K	0.00123 kPa
1028 K	0.00123 kPa
1029 K	0.00209 kPa
1033 K	0.00257 kPa
1034 K	0.00214 kPa
1035 K	0.00148 kPa
1037 K	0.00251 kPa and 0.00158 kPa
1038 K	0.00257 kPa
1043 K	0.00263 kPa and 0.00191 kPa
1045 K	0.00355 kPa
1047 K	0.00331 kPa
1048 K	0.00209 kPa
1053 K	0.00447 kPa
1054 K	0.00355 kPa and 0.00245 kPa
1056 K	0.00372 kPa
1057 K	0.00417 kPa
1058 K	0.00263 kPa
1059 K	0.00389 kPa
1064 K	0.00575 kPa
1065 K	0.00513 kPa
1067 K	0.00372 kPa
1071 K	0.00676 kPa and 0.00372 kPa
1072 K	0.00525 kPa
1073 K	0.00525 kPa
1075 K	0.00617 kPa
1081 K	0.00851 kPa
1082 K	0.00537 kPa
1091 K	0.00851 kPa
1092 K	0.0112 kPa
1093 K	0.00708 kPa
1102 K	0.0141 kPa
1105 K	0.00912 kPa
1117 K	0.0117 kPa

Source: the NIST ThermoML archive (doi:10.1021/je020189p)
